Drawing on paper PMC11672547, “Combination of Coevolutionary Information and Supervised Learning Enables Generation of Cyclic Peptide Inhibitors with Enhanced Potency from a Small Data Set” (ACS Central Science, 2024), this text covers Ki for 2 compounds.

Broadly, the Ki is a dissociation constant, usually derived from enzyme kinetics or from competition with a known ligand.

Like-named read-outs stand apart in the source and are kept apart here. Numbered stars: 1 amine (or outer) side, 2 acyl side, 3 side chain; on linkers, the order of the positions; unused ones are H or OH. Bridge positions count the residues as written; N and C are the ends. Peptide text beside a SMILES is read from it. TBMB = c1c(C[*:1])cc(C[*:3])cc1C[*:2] Some results are limits rather than exact numbers.

Experiment [1] concerns the target T1, human urokinase-type plasminogen activator (huPA) (Homo sapiens, UniProt P00749).
T1 construct: (UPA-LMW, Molecular Innovations, Novi, MI, USA) 1.5 nM; purchased Molecular Innovations UPA-LMW
As to the kind of experiment: huPA inhibition, fluorogenic enzyme activity assay (Z-Gly-Gly-Arg-AMC), Ki by Cheng-Prusoff. The format is biochemical. Particulars: 25 °C. As for the experimental part: bicyclic peptides. The activity assay was performed by incubating […] huPA with 50 μM fluorogenic substrate Z-Gly-Gly-Arg-AMC (50 μM; Bachem, Bubendorf, Switzerland) and […]
NaCl, 10 mM MgCl2, 1mM CaCl2, 0.1% w/v BSA, 0.01% v/v Triton-X100 and 5% v/v DMSO.
The measurements were performed on a Tecan microplate reader (Tecan infinite 200 pro, Tecan Trading AG, Switzerland) using black microfluor 96-well plate Nunc MicroWell, (Thermo Fisher Scientific, Dreieich, Germany) The enzymatic reactions were performed at 25 °C for 30 min, under shacking with an excitation wavelength of 355 nm and an emission recording at 460 nm. The initial velocities were monitored as changes in fluorescence intensity. The sigmoidal curves were fitted to the data using the following non-linear regression equation for the inhibitory dose-response curves with variable slope (2): […]
where x is the peptide concentration, y is the residual percentage of protease activity and p is the hill slope. Half maximum inhibitory concentration (IC50) values were derived from the fitted curves from GraphPad Prism 8 8.0.0. software (GraphPad software, Inc., San Diego, California). The final Ki was subsequently determined using the Cheng-Prusoff equation (3): […]
where Km (115 μM) is the Michaelis constant for the hydrolysis of Z-Gly-Gly-Arg-AMC catalysed by huPA which has been determined by standard Michaelis-Menten equation.
Values were determined using either OriginPro 8G software (OriginLab Corporation, Northamppton, MA, USA) or GraphPad Prism 8.0.0. software (GraphPad software, Inc., San […]
Recombinant production of the catalytic domain of human urokinase-type […]
The low molecular weight (LMW) human urokinase-type plasminogen activator (huPA) comprising the truncated 23 amino acid peptide fragment of chain A (Lys136-Lys158 in […]

For experiment [2], the target named is T1, human urokinase-type plasminogen activator (huPA). Particulars: UK140 family of 31 phage-encoded bicyclic peptides; cited from earlier work.
A further experiment concerns the target T2, human factor XIIa (Homo sapiens, UniProt P00748).
T2 construct: human factor XIIa (IHFXIIa, Innovative Research,; purchased Innovative Research IHFXIIa
T2 sequence (P00748 373-615 limits assumed): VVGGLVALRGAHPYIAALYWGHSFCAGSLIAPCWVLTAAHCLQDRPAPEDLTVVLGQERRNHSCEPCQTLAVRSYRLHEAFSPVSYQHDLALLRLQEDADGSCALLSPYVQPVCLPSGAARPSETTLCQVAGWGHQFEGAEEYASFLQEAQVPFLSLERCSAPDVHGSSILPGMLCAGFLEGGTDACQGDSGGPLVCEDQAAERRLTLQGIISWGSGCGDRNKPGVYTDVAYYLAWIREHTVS
T2 sequence (P00748 20-372 partner limits assumed): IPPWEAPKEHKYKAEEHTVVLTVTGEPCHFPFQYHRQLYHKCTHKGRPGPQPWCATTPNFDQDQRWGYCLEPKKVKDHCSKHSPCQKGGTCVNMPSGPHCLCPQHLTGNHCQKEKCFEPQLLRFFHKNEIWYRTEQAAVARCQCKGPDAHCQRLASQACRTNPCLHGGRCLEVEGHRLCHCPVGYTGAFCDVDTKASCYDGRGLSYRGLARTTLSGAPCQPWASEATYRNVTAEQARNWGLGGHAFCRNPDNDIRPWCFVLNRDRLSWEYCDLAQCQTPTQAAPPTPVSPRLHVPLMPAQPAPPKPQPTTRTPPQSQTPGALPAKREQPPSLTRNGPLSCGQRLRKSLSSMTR
Description: Specificity determination, residual protease activity (fluorogenic substrate). Format: biochemical. Particulars: 25 °C, pH 7.4, Z-Gly-Gly-Arg-AMC 50 μM. How it is done: (§1) 5% v/v DMSO. Final concentrations of serine proteases were the following: human uPA (UPA-LMW, Molecular Innovations, Novi, MI, USA) 1.5 nM, mouse uPA (MUPA-LMW, Molecular Innovations, Novi, MI, USA) 12 nM, human tPA (HTPATC; Molecular Innovations, Novi, MI, USA) 7.5 nM, mouse tPA (MTPA, Molecular Innovations, Novi, MI, USA) 6 nM, human trypsin (HTRYP, Molecular Innovations, Novi, MI, USA) 0.05 nM, human plasmin (HPLM, Molecular Innovations, Novi, MI, USA) 1.5 nM, human plasma kallikrein (IHPKA, Innovative Research, Novi, MI, USA) 0.5 nM, human thrombin (IHT, Innovative Research, Novi, MI, USA) 10 nM, and human factor XIIa (IHFXIIa, Innovative Research, Novi, MI, USA) 6 nM. Two-fold dilutions of UK970 bicyclic peptide inhibitor were prepared ranging from 1 mM to 125 nM for all the proteases. For human uPA an extra two-fold UK970 inhibitor dilution experiment was performed by using inhibitor concentrations ranging from 2000 nM to 0.12 nM. For the determination of the Ki inhibitory constants, the following fluorogenic substrates were used at final concentration of 50 μM: Z-Gly-Gly-Arg-AMC (for human uPA, murine uPA, human tPA, murine tPA, human trypsin, human thrombin and human factor XIIa; Bachem, Bubendorf, Switzerland), Z-Phe-Arg-AMC (for human plasma kallikrein; Bachem, Bubendorf, Switzerland) and H-D-Val-Leu-Lys-AMC (for human plasmin; Bachem, Bubendorf, Switzerland). The initial velocities were monitored as changes in fluorescence intensity during 30 min on a Tecan microplate reader (Tecan infinite 200 pro, Tecan Trading AG, Switzerland) using black microfluor 96-well plate Nunc MicroWell (Thermo Fisher Scientific, Dreieich, Germany). The enzymatic reactions were performed at 25 °C under shacking with an excitation wavelength of 355 nm and an emission recording at 460 nm.
(§2) Apparent equilibrium constants Kiapps values were determined by non-linear regression analyses of Vi/V0 versus [I]0 using equation (2). The final Kis were subsequently determined by correcting for the competitive effect of the substrate [S]0 using equation (3). The kinetic constants Kms for the hydrolysis of fluorogenic substrate, catalysed by each protease, were determined by standard Michaelis-Menten equation. Values were determined using either OriginPro 8G software (OriginLab Corporation, Northamppton, MA, USA) or GraphPad Prism 8.0.0. software (GraphPad software, Inc., San Diego, California). […]

A further experiment concerns the target T3, human plasma kallikrein (Homo sapiens, UniProt P03952).
T3 construct: purchased Innovative Research IHPKA
The description is as above. The format is biochemical. The conditions noted are these: 25 °C, pH 7.4, Z-Phe-Arg-AMC 50 μM. As for the experimental part: as §1, §2

The target in the next experiment is T4, human plasmin (Homo sapiens, UniProt P00747).
T4 construct: Bachem; purchased Molecular Innovations HPLM
T4 sequence (P00747 581-810 limits assumed): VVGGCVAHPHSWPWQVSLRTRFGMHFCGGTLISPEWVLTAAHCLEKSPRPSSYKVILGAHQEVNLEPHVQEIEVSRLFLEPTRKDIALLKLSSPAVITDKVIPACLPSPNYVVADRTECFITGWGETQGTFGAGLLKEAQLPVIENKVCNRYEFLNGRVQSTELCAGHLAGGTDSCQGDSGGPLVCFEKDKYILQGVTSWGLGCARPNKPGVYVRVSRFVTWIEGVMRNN
T4 sequence (P00747 97-580 partner limits assumed): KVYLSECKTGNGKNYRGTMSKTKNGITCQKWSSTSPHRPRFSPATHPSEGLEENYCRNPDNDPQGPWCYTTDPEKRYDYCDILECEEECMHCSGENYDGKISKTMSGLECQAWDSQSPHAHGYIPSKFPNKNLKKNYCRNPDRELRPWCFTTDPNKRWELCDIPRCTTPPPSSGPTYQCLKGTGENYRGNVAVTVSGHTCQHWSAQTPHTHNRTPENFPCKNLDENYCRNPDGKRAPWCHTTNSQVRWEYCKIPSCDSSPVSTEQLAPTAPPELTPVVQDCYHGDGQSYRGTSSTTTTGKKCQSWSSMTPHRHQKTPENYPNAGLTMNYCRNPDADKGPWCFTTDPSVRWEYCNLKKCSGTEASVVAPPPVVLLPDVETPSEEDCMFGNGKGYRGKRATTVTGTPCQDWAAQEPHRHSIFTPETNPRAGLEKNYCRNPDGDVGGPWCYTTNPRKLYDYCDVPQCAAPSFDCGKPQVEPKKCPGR
The experiment is described as above. Format: biochemical. The conditions noted are these: 25 °C, pH 7.4, H-D-Val-Leu-Lys-AMC 50 μM. How it is done:
as §1, §2

The next experiment has as its target T5, human tPA (htPA) (Homo sapiens, UniProt P00750).
T5 construct: purchased Molecular Innovations HTPATC
Described as above. Particulars: 25 °C, pH 7.4, Z-Gly-Gly-Arg-AMC 50 μM. Format: biochemical. How it is done: as §1, §2

The target in the next experiment is T6, human thrombin (Homo sapiens, UniProt P00734).
T6 construct: human thrombin (IHT, Innovative Research,; purchased Innovative Research IHT
The description is as above. Format: biochemical. The conditions noted are these: 25 °C, pH 7.4, Z-Gly-Gly-Arg-AMC 50 μM. As for the experimental part:
as §1, §2

For a further experiment, the target named is T7, murine tPA (mtPA) (Mus musculus, UniProt P11214).
T7 construct: purchased Molecular Innovations MTPA
T7 sequence (P11214 33-559): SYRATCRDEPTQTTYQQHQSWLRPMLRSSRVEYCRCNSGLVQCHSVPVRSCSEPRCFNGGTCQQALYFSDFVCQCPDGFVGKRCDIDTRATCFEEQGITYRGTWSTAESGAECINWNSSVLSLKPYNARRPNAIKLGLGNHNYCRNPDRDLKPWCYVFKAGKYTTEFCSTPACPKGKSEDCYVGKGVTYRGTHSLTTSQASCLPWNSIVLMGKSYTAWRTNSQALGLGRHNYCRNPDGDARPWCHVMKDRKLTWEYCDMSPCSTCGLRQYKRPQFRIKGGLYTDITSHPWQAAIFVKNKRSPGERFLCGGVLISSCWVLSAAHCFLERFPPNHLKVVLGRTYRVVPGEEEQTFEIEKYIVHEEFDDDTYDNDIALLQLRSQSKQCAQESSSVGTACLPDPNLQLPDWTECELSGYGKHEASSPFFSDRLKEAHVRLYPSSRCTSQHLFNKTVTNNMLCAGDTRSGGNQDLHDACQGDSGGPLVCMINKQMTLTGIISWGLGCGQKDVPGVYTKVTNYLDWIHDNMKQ
Described as above. The format is biochemical. Particulars: 25 °C, pH 7.4, Z-Gly-Gly-Arg-AMC 50 μM. How it is done: as §1, §2

In another experiment the target is T8, murine uPA (muPA) (Mus musculus, UniProt P06869).
T8 construct: mouse uPA (MUPA-LMW,; purchased Molecular Innovations MUPA-LMW
T8 sequence (P06869 180-433 limits assumed): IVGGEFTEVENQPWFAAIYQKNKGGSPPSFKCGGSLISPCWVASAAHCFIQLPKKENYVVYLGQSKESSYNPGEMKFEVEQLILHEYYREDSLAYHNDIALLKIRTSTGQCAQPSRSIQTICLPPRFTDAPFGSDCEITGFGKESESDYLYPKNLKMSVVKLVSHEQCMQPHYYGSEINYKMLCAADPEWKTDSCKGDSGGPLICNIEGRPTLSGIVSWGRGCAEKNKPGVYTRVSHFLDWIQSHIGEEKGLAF
T8 sequence (P06869 157-178 partner limits assumed): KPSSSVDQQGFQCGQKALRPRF
The experiment is described as above. Format: biochemical. The conditions noted are these: 25 °C, pH 7.4, Z-Gly-Gly-Arg-AMC 50 μM. As for the experimental part:
as §1, §2

The mark [3] stands for this setting: pH 7.4, substrate 50 μM, mean ± S.E. of at least three measurements, read-out: Ki.

T5 sequence (P00750 311-562 limits assumed): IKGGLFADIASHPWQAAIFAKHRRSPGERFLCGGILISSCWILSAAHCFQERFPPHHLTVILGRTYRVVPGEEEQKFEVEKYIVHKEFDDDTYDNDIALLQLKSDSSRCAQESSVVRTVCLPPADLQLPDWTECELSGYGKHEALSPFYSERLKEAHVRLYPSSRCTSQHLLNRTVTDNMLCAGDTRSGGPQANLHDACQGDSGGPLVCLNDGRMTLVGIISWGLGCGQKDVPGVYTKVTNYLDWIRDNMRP
T5 sequence (P00750 36-310 partner limits assumed): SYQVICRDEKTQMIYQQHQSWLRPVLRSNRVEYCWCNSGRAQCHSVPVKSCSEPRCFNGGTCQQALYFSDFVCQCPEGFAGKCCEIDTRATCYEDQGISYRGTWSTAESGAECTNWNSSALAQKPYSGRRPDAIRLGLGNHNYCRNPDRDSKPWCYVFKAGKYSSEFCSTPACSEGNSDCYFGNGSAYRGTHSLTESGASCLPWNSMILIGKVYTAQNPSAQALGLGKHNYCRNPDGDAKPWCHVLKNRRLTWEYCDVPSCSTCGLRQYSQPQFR
T3 sequence (P03952 391-638 limits assumed): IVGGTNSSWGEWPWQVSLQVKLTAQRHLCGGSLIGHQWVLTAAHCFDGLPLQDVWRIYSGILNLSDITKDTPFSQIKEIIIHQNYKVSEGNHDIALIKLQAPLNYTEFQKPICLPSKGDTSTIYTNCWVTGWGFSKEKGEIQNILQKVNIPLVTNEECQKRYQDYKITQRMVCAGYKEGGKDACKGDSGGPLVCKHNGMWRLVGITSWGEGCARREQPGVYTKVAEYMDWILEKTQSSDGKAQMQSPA
T3 sequence (P03952 20-390 partner limits assumed): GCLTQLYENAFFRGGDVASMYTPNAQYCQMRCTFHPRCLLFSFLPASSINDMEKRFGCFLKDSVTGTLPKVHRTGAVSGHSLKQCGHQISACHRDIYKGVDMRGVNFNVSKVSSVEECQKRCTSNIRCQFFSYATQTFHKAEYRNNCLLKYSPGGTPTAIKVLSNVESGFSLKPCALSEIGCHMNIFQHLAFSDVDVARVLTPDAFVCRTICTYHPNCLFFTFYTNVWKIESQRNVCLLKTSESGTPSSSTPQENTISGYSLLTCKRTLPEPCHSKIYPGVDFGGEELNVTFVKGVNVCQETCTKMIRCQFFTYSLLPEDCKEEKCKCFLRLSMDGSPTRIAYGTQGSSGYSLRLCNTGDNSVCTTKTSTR

Take `CC(C)[C@@H]1NC(=O)CNC(=O)[C@@H]2CSCc3cc(cc(c3)CSC[C@@H](C(=O)NCC(N)=O)NC(=O)[C@H](CO)NC(=O)[C@H](CO)NC(=O)[C@@H]3CCCN3C(=O)[C@H](CC(=O)O)NC1=O)CSC[C@H](NC(=O)[C@H](C)N)C(=O)N[C@@H](CC(N)=O)C(=O)N[C@@H](CO)C(=O)N[C@@H](CCCCN)C(=O)N[C@@H](Cc1ccccc1)C(=O)N[C@@H](CO)C(=O)NCC(=O)N2` [UK140, reference compound] (H-ACNSKFSGCGVDPSSCG-NH2; linker 2-9-16 via TBMB): the Ki in [1] (setting [3]) was 0.202 µM; in experiment [2], 0.2 µM.
`CC(C)[C@@H]1NC(=O)[C@H](Cc2ccccc2)NC(=O)[C@H](CCCNC(=N)N)NC(=O)[C@H](CO)NC(=O)[C@@H](NC(=O)[C@H](C)N)CSCc2cc3cc(c2)CSC[C@@H](C(=O)NCC(N)=O)NC(=O)[C@@H]2CCCN2C(=O)CNC(=O)CNC(=O)[C@H](CCCNC(=N)N)NC(=O)CNC(=O)[C@H](CCCNC(=N)N)NC(=O)[C@H](CSC3)NC(=O)[C@H](CC(=O)O)NC(=O)[C@H](C(C)C)NC1=O` [UK970] (H-ACSRFVVDCRGRGGPCG-NH2; linker 2-9-16 via TBMB): the Ki is 0.004 ± 0.001 µM in [1] (pH 7.4, Z-Gly-Gly-Arg-AMC 50 μM, read-out: Ki ± S.E.); 0.0043 ± 0.0001 µM in experiment [1] (setting [3]); over 1000 µM on human factor XIIa; over 1000 µM at human plasma kallikrein; over 1000 µM on human plasmin; over 1000 µM on human tPA (htPA). In addition, the Ki at human thrombin, on murine tPA (mtPA) and at murine uPA (muPA) was over 1000 µM throughout.
